Measured values: PubChem BioAssay AID248 (DTP/NCI, 2004)
“And” between values parts separate entries of the source, which are not always exact repeats. Equal entries are not always repeated. Inconclusive results and toxic doses are left out.

Tested on: L1210 leukemia ip in BDF1 mice, survival T/C
Experiment: NCI In Vivo Anticancer Drug Screen. Data for tumor model L1210 Leukemia (intraperitoneal) in B6D2F1 (BDF1) mice
Conditions: higher = longer survival
Outline: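 Read-out is survival time, reported as the treated-group measurement over the vehicle-control measurement.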

[1] = endpoint: mean survival time, dose: 100.0 mg/kg/injection, schedule: Q01DX009 (ip), vehicle: Klucel (hydroxypropylcellulose) (HPC)
[2] = endpoint: mean survival time, dose: 100.0 mg/kg/injection, schedule: Q04DX002 (ip), vehicle: Klucel (hydroxypropylcellulose) (HPC)
[3] = endpoint: mean survival time, dose: 200.0 mg/kg/injection, schedule: Q01DX009 (ip), vehicle: Klucel (hydroxypropylcellulose) (HPC)
[4] = endpoint: mean survival time, dose: 200.0 mg/kg/injection, schedule: Q04DX002 (ip), vehicle: Klucel (hydroxypropylcellulose) (HPC)
[5] = endpoint: mean survival time, dose: 400.0 mg/kg/injection, schedule: Q01DX009 (ip), vehicle: Klucel (hydroxypropylcellulose) (HPC)
[6] = endpoint: mean survival time, dose: 400.0 mg/kg/injection, schedule: Q04DX002 (ip), vehicle: Klucel (hydroxypropylcellulose) (HPC)
[7] = endpoint: mean survival time, dose: 100.0 mg/kg/injection, schedule: Q01DX001 (ip), vehicle: other
[8] = endpoint: mean survival time, dose: 100.0 mg/kg/injection, schedule: Q04DX003 (ip), vehicle: Klucel (hydroxypropylcellulose) (HPC)
[9] = endpoint: mean survival time, dose: 200.0 mg/kg/injection, schedule: Q04DX003 (ip), vehicle: Klucel (hydroxypropylcellulose) (HPC)
[10] = endpoint: mean survival time, dose: 400.0 mg/kg/injection, schedule: Q04DX003 (ip), vehicle: Klucel (hydroxypropylcellulose) (HPC)
[11] = endpoint: mean survival time, dose: 100.0 mg/kg/injection, schedule: Q01DX009 (ip), vehicle: saline with Tween-80
[12] = endpoint: mean survival time, dose: 200.0 mg/kg/injection, schedule: Q01DX009 (ip), vehicle: saline with Tween-80
[13] = endpoint: mean survival time, dose: 100.0 mg/kg/injection, schedule: Q04DX003 (ip), vehicle: saline with Tween-80
[14] = endpoint: mean survival time, dose: 200.0 mg/kg/injection, schedule: Q04DX003 (ip), vehicle: saline with Tween-80
[15] = endpoint: mean survival time, dose: 400.0 mg/kg/injection, schedule: Q01DX009 (ip), vehicle: saline with Tween-80

CC(=O)Cc1ccc(Cl)cc1
T/C (endpoint: mean survival time, dose: 100.0 mg/kg/injection, schedule: Q04DX002 (ip), vehicle: saline): 92 % of control
T/C (endpoint: mean survival time, dose: 200.0 mg/kg/injection, schedule: Q04DX002 (ip), vehicle: saline): 95 % of control
T/C (endpoint: mean survival time, dose: 400.0 mg/kg/injection, schedule: Q04DX002 (ip), vehicle: saline): 99 % of control

Cc1ccc(NC(=O)Oc2ccc(Nc3ccccc3)cc2)cc1
T/C [1]: 103 % of control
T/C [2]: 98 % of control
T/C [3]: 95 % of control
T/C [4]: 95 % of control
T/C [5]: 98 % of control
T/C [6]: 91 % of control

CCCCOC(=O)c1[nH]cnc1/N=N\N(C)C
T/C (endpoint: mean survival time, dose: 10.0 mg/kg/injection, schedule: Q01DX009 (ip), vehicle: carboxymethylcellulose (CMC)): 100 % of control
T/C (endpoint: mean survival time, dose: 18.0 mg/kg/injection, schedule: Q01DX001 (ip), vehicle: other): 98 % of control
T/C (endpoint: mean survival time, dose: 20.0 mg/kg/injection, schedule: Q01DX009 (ip), vehicle: carboxymethylcellulose (CMC)): 109 % of control
T/C (endpoint: mean survival time, dose: 28.0 mg/kg/injection, schedule: Q01DX001 (ip), vehicle: other): 93 % of control
T/C (endpoint: mean survival time, dose: 40.0 mg/kg/injection, schedule: Q01DX009 (ip), vehicle: carboxymethylcellulose (CMC)): 114 % of control
T/C (endpoint: mean survival time, dose: 42.0 mg/kg/injection, schedule: Q01DX001 (ip), vehicle: other): 100 % of control
T/C (endpoint: mean survival time, dose: 63.0 mg/kg/injection, schedule: Q01DX001 (ip), vehicle: other): 102 % of control
T/C (endpoint: mean survival time, dose: 72.0 mg/kg/injection, schedule: Q01DX015 (ip), vehicle: other): 110 % of control
T/C [7]: 111 % of control
T/C (endpoint: mean survival time, dose: 120.0 mg/kg/injection, schedule: Q01DX015 (ip), vehicle: other): 101 % of control

CCOC(=O)CC1c2nc3ccccc3cc2CN1C(=O)OCC (configuration not stated)
T/C [8]: 100 % of control
T/C [9]: 102 % of control
T/C [10]: 103 % of control

NC(=S)c1ncc(N)s1
T/C (endpoint: mean survival time, dose: 100.0 mg/kg/injection, schedule: Q04DX002 (ip), vehicle: saline with Tween-80): 92 % of control
T/C (endpoint: mean survival time, dose: 200.0 mg/kg/injection, schedule: Q04DX002 (ip), vehicle: saline with Tween-80): 100 % of control
T/C (endpoint: mean survival time, dose: 400.0 mg/kg/injection, schedule: Q04DX002 (ip), vehicle: saline with Tween-80): 120 % of control

COc1ccc(-c2ccc(OC)cc2[N+](=O)[O-])c([N+](=O)[O-])c1
T/C (endpoint: mean survival time, dose: 100.0 mg/kg/injection, schedule: Q01DX001 (ip), vehicle: carboxymethylcellulose (CMC)): 100 % of control
T/C (endpoint: mean survival time, dose: 200.0 mg/kg/injection, schedule: Q01DX001 (ip), vehicle: carboxymethylcellulose (CMC)): 100 % of control
T/C (endpoint: mean survival time, dose: 400.0 mg/kg/injection, schedule: Q01DX001 (ip), vehicle: carboxymethylcellulose (CMC)): 102 % of control

O=C(c1ccccc1)c1cc(-c2cc(=O)cc(-c3cc(C(=O)c4ccccc4)c(O)cc3O)o2)c(O)cc1O
T/C (endpoint: mean survival time, dose: 100.0 mg/kg/injection, schedule: Q01DX001 (ip), vehicle: saline): 96 % of control
T/C (endpoint: mean survival time, dose: 200.0 mg/kg/injection, schedule: Q01DX001 (ip), vehicle: saline): 105 % of control
T/C (endpoint: mean survival time, dose: 400.0 mg/kg/injection, schedule: Q01DX001 (ip), vehicle: saline): 94 % of control

CCCCNCCCC(C(=O)O)c1ccccc1 (configuration not stated)
T/C (endpoint: mean survival time, dose: 75.0 mg/kg/injection, schedule: Q01DX001 (ip), vehicle: carboxymethylcellulose (CMC)): 100 % of control
T/C (endpoint: mean survival time, dose: 150.0 mg/kg/injection, schedule: Q01DX001 (ip), vehicle: carboxymethylcellulose (CMC)): 90 % of control
T/C (endpoint: mean survival time, dose: 300.0 mg/kg/injection, schedule: Q01DX001 (ip), vehicle: carboxymethylcellulose (CMC)): 90 % of control

O=C(Oc1ccccc1Cl)c1ccc(Cl)c(Cl)c1
T/C [1]: 98 % of control
T/C [8]: 95 % of control
T/C [3]: 93 % of control
T/C [9]: 90 % of control
T/C [5]: 90 % of control
T/C [10]: 90 % of control

Cc1[nH]c2ccccc2c1C1Cc2ccccc2N1 (configuration not stated)
T/C [7]: 97 % of control and 103 % of control
T/C (endpoint: mean survival time, dose: 100.0 mg/kg/injection, schedule: Q01DX009 (ip), vehicle: other): 101 % of control
T/C (endpoint: mean survival time, dose: 200.0 mg/kg/injection, schedule: Q01DX001 (ip), vehicle: other): 100 % of control and 90 % of control
T/C (endpoint: mean survival time, dose: 200.0 mg/kg/injection, schedule: Q01DX009 (ip), vehicle: other): 101 % of control
T/C (endpoint: mean survival time, dose: 400.0 mg/kg/injection, schedule: Q01DX001 (ip), vehicle: other): 94 % of control
T/C (endpoint: mean survival time, dose: 400.0 mg/kg/injection, schedule: Q01DX009 (ip), vehicle: other): 107 % of control

CO[C@@H](C=O)O[C@@H](C=O)CO
T/C (endpoint: mean survival time, dose: 35.0 mg/kg/injection, schedule: Q01DX009 (ip), vehicle: water): 115 % of control
T/C (endpoint: mean survival time, dose: 35.0 mg/kg/injection, schedule: Q01DX Z (ip), vehicle: water): 115 % of control
T/C (endpoint: mean survival time, dose: 70.0 mg/kg/injection, schedule: Q01DX009 (ip), vehicle: water): 123 % of control
T/C (endpoint: mean survival time, dose: 70.0 mg/kg/injection, schedule: Q01DX Z (ip), vehicle: water): 122 % of control
T/C (endpoint: mean survival time, dose: 280.0 mg/kg/injection, schedule: Q01DX009 (ip), vehicle: water): 153 % of control
T/C (endpoint: mean survival time, dose: 280.0 mg/kg/injection, schedule: Q01DX Z (ip), vehicle: water): 160 % of control

CN(C)c1ccc(N=Nc2ccc(Cl)c(Cl)c2)cc1
T/C (endpoint: mean survival time, dose: 50.0 mg/kg/injection, schedule: Q01DX009 (ip), vehicle: saline with Tween-80): 98 % of control
T/C [11]: 95 % of control
T/C [12]: 87 % of control

NC(CS(=O)c1ccc(Cl)cc1)C(=O)O (configuration not stated)
T/C [13]: 97 % of control
T/C [14]: 92 % of control

[I][Sn]([c]1ccccc1)([c]1ccccc1)[c]1ccccc1
T/C (endpoint: mean survival time, dose: 0.25 mg/kg/injection, schedule: Q01DX009 (ip), vehicle: Klucel (hydroxypropylcellulose) (HPC)): 93 % of control
T/C (endpoint: mean survival time, dose: 0.5 mg/kg/injection, schedule: Q01DX009 (ip), vehicle: Klucel (hydroxypropylcellulose) (HPC)): 101 % of control
T/C (endpoint: mean survival time, dose: 1.0 mg/kg/injection, schedule: Q01DX009 (ip), vehicle: Klucel (hydroxypropylcellulose) (HPC)): 97 % of control

CSc1ncnc2c1ncn2-n1cccc1
T/C (endpoint: mean survival time, dose: 100.0 mg/kg/injection, schedule: Q01DX001 (ip), vehicle: saline with Tween-80): 104 % of control
T/C [1]: 97 % of control
T/C [8]: 93 % of control
T/C [13]: 103 % of control
T/C (endpoint: mean survival time, dose: 200.0 mg/kg/injection, schedule: Q01DX001 (ip), vehicle: saline with Tween-80): 106 % of control
T/C [3]: 95 % of control
T/C [9]: 96 % of control
T/C [14]: 101 % of control
T/C (endpoint: mean survival time, dose: 400.0 mg/kg/injection, schedule: Q01DX001 (ip), vehicle: saline with Tween-80): 95 % of control
T/C [5]: 101 % of control
T/C [10]: 98 % of control

Cc1ccc(Cl)cc1N1C(=O)CC(Sc2ccccc2N)C1=O (configuration not stated)
T/C [1]: 90 % of control
T/C [8]: 90 % of control
T/C [3]: 90 % of control
T/C [9]: 95 % of control
T/C [5]: 90 % of control
T/C [10]: 90 % of control

CCCC(=O)NC1Cc2cc(C)cc(C)c21 (configuration not stated)
T/C (endpoint: mean survival time, dose: 50.0 mg/kg/injection, schedule: Q04DX002 (ip), vehicle: Klucel (hydroxypropylcellulose) (HPC)): 100 % of control
T/C [2]: 111 % of control
T/C [4]: 96 % of control

O=C1CCC(=O)N1CC(O)COc1ccc(Cl)cc1 (configuration not stated)
T/C [11]: 96 % of control
T/C [12]: 101 % of control
T/C [15]: 104 % of control

O=c1cc(O)ccn1CC(O)c1ccc(Cl)s1 (configuration not stated)
T/C [11]: 89 % of control
T/C [13]: 100 % of control
T/C [12]: 88 % of control
T/C [14]: 98 % of control
T/C [15]: 94 % of control
T/C (endpoint: mean survival time, dose: 400.0 mg/kg/injection, schedule: Q04DX003 (ip), vehicle: saline with Tween-80): 99 % of control

O=C(Cc1cccc2ccccc12)N/N=C/c1cccc([N+](=O)[O-])c1
T/C [1]: 88 % of control
T/C [2]: 93 % of control
T/C [3]: 93 % of control
T/C [4]: 89 % of control
T/C [6]: 96 % of control

c1c(N2CC2)cc(N2CC2)cc1N1CC1
T/C (endpoint: median survival time, dose: 100.0 mg/kg/injection, schedule: Q01DX009 (ip), vehicle: Klucel (hydroxypropylcellulose) (HPC)): 108 % of control
T/C (endpoint: median survival time, dose: 200.0 mg/kg/injection, schedule: Q01DX009 (ip), vehicle: Klucel (hydroxypropylcellulose) (HPC)): 97 % of control
T/C (endpoint: median survival time, dose: 400.0 mg/kg/injection, schedule: Q01DX009 (ip), vehicle: Klucel (hydroxypropylcellulose) (HPC)): 92 % of control
